Columns and labels:
skin of human subjects = assay: Human repeat insult patch test for skin irritation and sensitization; type: in vivo; settings: positive control
Experimental: To determine the irritation and sensitization (contact allergy) potential of a test material after repeated application to the skin of human subjects three studies were conducted using the formulations of the invention comprising 2-undecanone, soybean oil, polysorbate 20, sorbitan oleate, oil of lemon eucalyptus and denatured alcohol (e.g., test materials).
Test materials to be tested under occlusive conditions were placed on an 8-millimeter aluminum Finn Chamber® (Epitest Ltd. Oy, Tuusula, Finland) supported on Scanpor® Tape (Norgesplaster A/S, Kristiansand, Norway) or an 8 mm filter paper coated aluminum Finn Chamber® AQUA supported on a thin flexible transparent polyurethane rectangular film coated on one side with a medical grade acrylic adhesive, consistent with adhesive used in state-of the-art hypoallergenic surgical tapes or a 7 mm IQ-ULTRA® closed cell system which is made of additive-free polyethylene plastic foam with a filter paper incorporated (It is supplied in units of 10 chambers on a hypoallergenic nonwoven adhesive tape; the width of the tape is 52 mm and the length is 118 mm) or other equivalents. Materials to be tested under semi-occlusive conditions were placed on a test strip with a Rayon/Polypropylene pad or on a 7.5 mm filter paper disc affixed to a strip of hypoallergenic tape (Johnson & Johnson 1 inch First Aid Cloth Tape).
Test materials to be tested in an open patch were applied and rubbed directly onto the back of the subject. Approximately 0.02-0.05 mL (in case of liquids) and/or 0.02-0.05 gm (in case of solids) of the test material was used for the studies. Liquid test material was dispensed on a 7.5 mm paper disk, which fit in the Finn Chamber.
Subjects were requested to bathe or wash as usual before arrival at the facility. Patches containing the test material were then affixed directly to the skin of the intrascapular regions of the back, to the right or left of the midline and subjects were dismissed with instructions not to wet or expose the test area to direct sunlight. Patches remained in place for 48 hours after the first application. Subjects were instructed not to remove the patches prior to their 48 hour scheduled visit. Thereafter, subjects were instructed to remove patches 24 hours after application for the remainder of the study.
This procedure was repeated until a series of nine (9) consecutive, 24-hour exposures had been made three (3) times a week for three (3) consecutive weeks. Prior to each reapplication, the test sites were evaluated by trained laboratory personnel. Following a 10-14 day rest period a retest/challenge dose was applied once to a previously unexposed test site.
Test sites were evaluated by trained laboratory personnel 48 and 96 hours after application.
In the event of an adverse reaction, the area of erythema and edema were measured. Edema was estimated by the evaluation of the skin with respect to the contour of the unaffected normal skin. Subjects were instructed to report any delayed reactions that might occur after the final reading.
Scoring scale and definition of symbols shown below are based on the scoring scheme according to the International Contact Dermatitis Research Group scoring scale [Rietschel, R. L., Fowler, J. F., Ed., Fisher's Contact Dermatitis (fourth ed.). […]

insect or tick = assay: Duration of repellency of 2-undecanone alone (statement, no method); settings: unformulated

Row | Compound | subjects with a Grade 1 delayed reaction (skin of human subjects; Study I) [subjects] | subjects with a Grade 1 reaction (skin of human subjects; Study I) [subjects] | subjects with a Grade 1 reaction (skin of human subjects; Study II) [subjects] | subjects with Grade 1 reaction (skin of human subjects; Study III) | subjects with Grade 2 reaction (skin of human subjects; Study III) | duration of repellency (insect or tick)
1 | CCCCCCCCCCCCOS(=O)(=O)[O-].[Na+] [2.0% Sodium Lauryl Sulfate Solution, Sodium Lauryl Sulfate] | 4 | 35 | 10 | Two | two | 
2 | CCCCCCCCCC(C)=O [Soybean 2-undecanone, 2-undecanone] |  |  |  |  |  | less than 30 min
